We go through seven compounds from patent US10047118B2, “C17-aryl substituted betulinic acid analogs” (priority 2014, dated 2018).

A value given as a limit tells only on which side of the number the result lay.

This assay deals with recombinant NL4-3 virus (Renilla luciferase in nef, Gag P373S; NLRluc) in MT-2 cells. Briefly: HIV cell culture assay (luciferase reporter virus in MT-2 cells). Conditions: NL43, read-out: WT EC50. Type of assay: cell-based. Here is the method:
Step 2: To a solution of methyl 4-((1R,3aS,5aR,5bR,7aR,11aS,11bR,13aR,13bR)-5a,5b,8,8,11a-pentamethyl-3a-(1-methyl-1H-1,2,4-triazol-5-yl)-1-(prop-1-en-2-yl)-2,3,3a,4,5,5a,5b,6,7,7a,8,11,11a,11b,12,13,13a,13b-octadecahydro-1H-cyclopenta[a]chrysen-9-yl)benzoate (12.7 mg, 0.021 mmol) in THF (1 mL) and MeOH (0.25 mL) was added a solution of 1N lithium hydroxide (0.073 mL, 0.073 mmol). The reaction was stirred at 75° C. After 1 h, the reaction was cooled to rt and purified by reverse phase prep-HPLC using HPLC method 4 and dried in vacuo to give 4-((1R,3aS,5aR,5bR,7aR,11aS,11bR,13aR,13bR)-5a,5b,8,8,11a-pentamethyl-3a-(1-methyl-1H-1,2,4-triazol-5-yl)-1-(prop-1-en-2-yl)-2,3,3a,4,5,5a,5b,6,7,7a,8,11,11a,11b,12,13,13a,13b-octadecahydro-1H-cyclopenta[a]chrysen-9-yl)benzoic acid (9.1 mg, 0.015 mmol, 70.4% yield) as a white solid. LC/MS: m/e 596.3 (M+H)^+, 5.33 min (method 3). ^1H NMR (400 MHz, 1:1 CDCl3:METHANOL-d4) δ 7.89 (d, J=8.3 Hz, 2H), 7.78 (s, 1H), 7.17 (d, J=8.6 Hz, 2H), 5.30-5.22 (m, 1H), 4.77 (d, J=1.7 Hz, 1H), 3.93 (s, 3H), 3.23-3.05 (m, 2H), 2.33 (d, J=13.7 Hz, 1H), 2.11 (dd, J=17.2, 6.2 Hz, 1H), 2.04-1.96 (m, 1H), 1.93-1.80 (m, 2H), 1.72 (s, 3H), 1.68 (d, J=16.4 Hz, 1H), 1.63-1.58 (m, 1H), 1.55-1.30 (m, 10H), 1.28-1.19 (m, 2H), 1.18-1.08 (m, 2H), 1.04 (s, 3H), 0.97 (s, 3H), 0.90 (s, 6H), 0.82 (s, 3H). HIV cell culture assay—MT-2 cells and 293T cells were obtained from the NIH AIDS Research and Reference Reagent Program. MT-2 cells were propagated in RPMI 1640 media supplemented with 10% heat inactivated fetal bovine serum, […]. The 293T cells were propagated in DMEM media supplemented with 10% heat inactivated fetal bovine serum (FBS), 100 units/mL penicillin G and 100 μg/mL streptomycin. The proviral DNA clone of NL4-3 was obtained from the NIH AIDS Research and Reference Reagent Program. A recombinant NL4-3 virus, in which a section of the nef gene from NL4-3 was replaced with the Renilla luciferase gene, was used as a reference virus. In addition, residue Gag P373 was converted to P373S. Briefly, the recombinant virus was prepared by transfection of the altered proviral clone of NL4-3. Transfections were performed in 293T cells using LipofectAMINE PLUS from Invitrogen (Carlsbad, Calif.), according to manufacturer's instruction. The virus was titered in MT-2 cells using luciferase enzyme activity as a marker. Luciferase was quantitated using the Dual Luciferase kit from Promega (Madison, Wis.), with modifications to the manufacturer's protocol. The diluted Passive Lysis solution was pre-mixed with the re-suspended Luciferase Assay Reagent and the re-suspended Stop & Glo Substrate (2:1:1 ratio). Fifty (50) μL of the mixture was added to each aspirated well on assay plates and luciferase activity was measured immediately on a Wallac TriLux (Perkin-Elmer). Antiviral activities of inhibitors toward the recombinant virus were quantified by measuring luciferase activity in cells infected for 4-5 days with NLRluc recombinants in the presence serial dilutions of the inhibitor. Biological Data Key for EC50

Regarding `C=C(C)[C@@H]1CC[C@]2(c3ncn(CCN4CCS(=O)(=O)CC4)n3)CC[C@]3(C)[C@H](CC[C@@H]4[C@@]5(C)CC=C(c6ccc(C(=O)O)cc6)C(C)(C)[C@@H]5CC[C@]43C)[C@@H]12` [Example 6, 4-((1R,3aS,5aR,5bR,7aR,11aS,11bR,13aR,13bR)-3a-(1-(2-(1,1-dioxidothiomorpholino)ethyl)-1H-1,2,4-triazol-3-yl)-5a,5b,8,8,11a-pentamethyl-1-(prop-1-en-2-yl)-2,3,3a,4,5,5a,5b,6,7,7a,8,11,11a,11b,12,13,13a,13b-octadecahydro-1H-cyclopenta[a]chrysen-9-yl)benzoic acid], the EC50 is below 100 nM. Under `C=C(C)[C@@H]1CC[C@]2(c3nc[nH]n3)CC[C@]3(C)[C@H](CC[C@@H]4[C@@]5(C)CC=C(c6ccc(C(=O)O)cc6)C(C)(C)[C@@H]5CC[C@]43C)[C@@H]12` [Example 5, 4-((1R,3aS,5aR,5bR,7aR,11aS,11bR,13aR,13bR)-5a,5b,8,8,11a-pentamethyl-1-(prop-1-en-2-yl)-3a-(1H-1,2,4-triazol-3-yl)-2,3,3a,4,5,5a,5b,6,7,7a,8,11,11a,11b,12,13,13a,13b-octadecahydro-1H-cyclopenta[a]chrysen-9-yl)benzoic acid] stands below 100 nM.

Take `C=C(C)[C@@H]1CC[C@]2(C#Cc3ccsc3-c3nnn[nH]3)CC[C@]3(C)[C@H](CC[C@@H]4[C@@]5(C)CC=C(c6ccc(C(=O)O)cc6)C(C)(C)[C@@H]5CC[C@]43C)[C@@H]12` [Example 2, 4-((1R,3aS,5aR,5bR,7aR,11aS,11bR,13 aR,13bR)-3a-((2-(1H-tetrazol-5-yl)thiophen-3-yl)ethynyl)-5a,5b,8,8,11a-pentamethyl-1-(prop-1-en-2-yl)-2,3,3a,4,5,5a,5b,6,7,7a,8,11,11a,11b,12,13,13a,13b-octadecahydro-1H-cyclopenta[a]chrysen-9-yl)benzoic acid]: the 50% effective concentration (EC50) was above 100 nM.

For `C=C(C)[C@@H]1CC[C@]2(c3nnc(CN(C)C)o3)CC[C@]3(C)[C@H](CC[C@@H]4[C@@]5(C)CC=C(c6ccc(C(=O)O)cc6)C(C)(C)[C@@H]5CC[C@]43C)[C@@H]12` [Example 4, 4-((1R,3aS,5aR,5bR,7aR,11aS,11bR,13 aR,13bR)-3a-(5-((dimethylamino)methyl)-1,3,4-oxadiazol-2-yl)-5a,5b,8,8,11a-pentamethyl-1-(prop-1-en-2-yl)-2,3,3a,4,5,5a,5b,6,7,7a,8,11,11a,11b,12,13,13a,13b-octadecahydro-1H-cyclopenta[a]chrysen-9-yl)benzoic acid], the EC50 was below 100 nM. With `C=C(C)[C@@H]1CC[C@]2(c3ncnn3C)CC[C@]3(C)[C@H](CC[C@@H]4[C@@]5(C)CC=C(c6ccc(C(=O)O)cc6)C(C)(C)[C@@H]5CC[C@]43C)[C@@H]12` [Example 7, 4-((1R,3aS,5aR,5bR,7aR,11aS,11bR,13aR,13bR)-5a,5b,8,8,11a-pentamethyl-3a-(1-methyl-1H-1,2,4-triazol-5-yl)-1-(prop-1-en-2-yl)-2,3,3a,4,5,5a,5b,6,7,7a,8,11,11a,11b,12,13,13a,13b-octadecahydro-1H-cyclopenta[a]chrysen-9-yl)benzoic acid], the EC50 is below 100 nM. Under `C=C(C)[C@@H]1CC[C@]2(C#Cc3ccccc3C(=O)O)CC[C@]3(C)[C@H](CC[C@@H]4[C@@]5(C)CC=C(c6ccc(C(=O)O)cc6)C(C)(C)[C@@H]5CC[C@]43C)[C@@H]12` [Example 1, 2-(((1R,3aS,5aR,5bR,7aR,11aS,11bR,13aR,13bR)-9-(4-carboxyphenyl)-5a,5b,8,8,11a-pentamethyl-1-(prop-1-en-2-yl)-2,3,3a,4,5,5a,5b,6,7,7a,8,11,11a,11b,12,13,13a,13b-octadecahydro-1H-cyclopenta[a]chrysen-3a-yl)ethynyl)benzoic acid] stands 80 nM. Under `C=C(C)[C@@H]1CC[C@]2(c3nnco3)CC[C@]3(C)[C@H](CC[C@@H]4[C@@]5(C)CC=C(c6ccc(C(=O)O)cc6)C(C)(C)[C@@H]5CC[C@]43C)[C@@H]12` [Example 3, 4-((1R,3aS,5aR,5bR,7aR,11aS,11bR,13aR,13bR)-5a,5b,8,8,11a-pentamethyl-3a-(1,3,4-oxadiazol-2-yl)-1-(prop-1-en-2-yl)-2,3,3a,4,5,5a,5b,6,7,7a,8,11,11a,11b,12,13,13a,13b-octadecahydro-1H-cyclopenta[a]chrysen-9-yl)benzoic acid] stands below 100 nM.
